Laboratory results reported in US7183092B2, “Modified luciferase” (priority 2003, dated 2007).
Entries after “also recorded” stand apart in the source; their conditions may differ.

What was measured:
Format in all cases: biochemical, Photinus pyralis
[1] = Stability of CNBLuc03-02 luciferase activity in the presence of chloroform; settings: 5% ethanol, 33 mM DTT, 10 μl cell lysates; for inhibition of luciferase activity by 0.8% CHCl3: 0.8% chloroform; for original activity maintained: FIG. 1, different concentrations of chloroform
Experimental: (§1) The stability of CNBLuc03-02 luciferase (SEQ ID NO: 2) in the presence of a range of potential inhibitors was assayed. The basic assay contained 40 mM Tris-Acetate at pH 7.8, 1 mM MgSO4, 0.1 mM EDTA (ethylenediaminetetraacetic acid), 500 μM D-Luciferin and 500 μM ATP. Ethanol, DTT (dithiothreitol) and potential inhibitors were included at the concentrations stated.

[2] = Stability of CNBLuc03-02 luciferase activity in the presence of HPV solvents; settings: FIG. 2, 33 mM DTT, 10% ethanol; for inhibition of luciferase activity by toluene: 0.5% toluene
Experimental: as §1
Toluene inhibited CNBLuc03-02 luciferase (SEQ ID NO: 2) activity by approximately 40% and wild type luciferase activity by approximately 80%.

[3] = Stability of CNBLuc03-06 luciferase activity in the presence of HPV chemicals; settings: FIG. 3, 1 mM DTT, 2.5% ethanol
Experimental: as §1, with “CNBLuc03-06” for “CNBLuc03-02”, “4), both in purified form and in cell lysates,” for “2)”
This effect was confirmed by repeated experiments. With 20 ng purified CNBLuc03-06 luciferase (SEQ ID NO: 4) and in the presence of 2.5% ethanol, 1 mM DTT and 86 mM chloroform an activation of approximately 50% was measured, compared with the absence of chloroform.
The capacity of a variety HPV chemicals to inhibit or activate both wild type luciferase and CNBLuc03-06 luciferase (SEQ ID NO: 4) activity compared to controls without HPV chemicals was tested. Higher concentrations of chloroform (172 mM), methylene chloride (318 mM) or toluene (2.7 mM) were used. The basic assay contained 20ng of purified CNBLuc03-06, 1 mM DTT and 2.5% ethanol. CNBLuc03-06 luciferase (SEQ ID NO: 4) was exposed to each chemical for less than 5 minutes before measuring the light output.

[4] = Luciferase activity in the presence of nonionic detergent Triton X-100; settings: FIG. 4; Triton X-100 up to 5%, 20 ng purified luciferase, 0% ethanol, 33 mM DTT
Experimental: as §1, with “CNBLuc03-06” for “CNBLuc03-02”, “4), both in purified form and in cell lysates,” for “2)”
(§2) The stability of CNBLuc03-06 luciferase (SEQ ID NO: 4) in the presence of Triton X-100 and SDS was determined using 20 ng of purified luciferase per sample using the basic assay conditions and in the presence of 0% ethanol and 33 mM DTT. The effect of detergents on wild type luciferase was determined previously by W. J. Simpson and J. R. M. Hammond (W. J. Simpson and J. R. M. Hammond, (1991) Journal of Bioluminescence & Chemiluminescence, 6. 97–106, incorporated herein by reference). They reported the anionic detergents inhibit luciferase activity, and cationic detergents and nonionic detergents increase the reaction rate when the concentration of detergent exceeds critical micelle concentration (CMC) value but only up to certain concentrations.

[5] = Luciferase activity in the presence of anionic detergent SDS; settings: FIG. 5; 20 ng purified luciferase, 0% ethanol, 33 mM DTT
Experimental: as §1, with “CNBLuc03-06” for “CNBLuc03-02”, “4), both in purified form and in cell lysates,” for “2)”
as §2
SDS was used for testing the effect of anionic detergents.

[6] = Luciferase activity at different pHs; settings: up to pH 11
Experimental: 20 ng of enzyme was used for each reaction. The pH was maintained at 7.8 by 40 mM Tris-acetate buffer and 33 mM DTT was added to each reaction. Both substrates, MGATP and D-Luciferin were saturated at 1 mM and 500 μM respectively. The values were normalized against the highest RLU (relative light units) at each pH optimum for comparison purpose. CNBLuc03-06 luciferase (SEQ ID NO: 4) has optimum pH of 9, but the high enough activity is retained at lower pHs in which enables us to use this mutant luciferase in case a wide range of pH is required for the assay (between 8–11).

[7] = Specific activity of luciferase in the absence of DTT; settings: 0 mM DTT, pH 7.8, 1 mM ATP, 500 μM D-Luciferin, three replicates
Experimental: Dithiothreitol (DTT) is an enzyme stabilizing agent used to reduce disulfide bonds (break the bonds) that are not normally formed under physiological conditions. Both purified wild type luciferase and CNBLuc03-06 luciferase (SEQ ID NO: 4) were diluted to 2 μg/ml in 40 mM Tris Acetate buffer at pH 7.8. The assay contained 40 mM Tris-Acetate at pH 7.8, 1 mM MgSO4, 0.1 mM EDTA, 500 μM D-Luciferin, 1 mM ATP, and 0 mM DTT. The light output was measured over time and three replicate measurements were made for each luciferase. The average value of the highest light output reading obtained over time was used to determine specific activity of each enzyme.

[8] = Quantitative in vitro screening of mutant luciferases with chloroform; settings: cell lysate supernatant
Experimental: Selected colonies from secondary screening were inoculated and grown in 5 ml LB broth containing 100 μg/ml ampicillin at 30° C. overnight. When the OD660 reached approximately 1, bacterial cells were harvested from 1.5 ml of culture by centrifugation for 3 min at 12,000 rpm (Eppendorf centrifuge model 5415D). Harvested cells were resuspended in 1 ml of 40 mM Tris-Acetate buffer, pH 7.8, and sonicated for 10 seconds using a Branson Sonifer 450, Duty cycle-40 and output control-4. The activity of each luciferase sample, prepared using 10 μl of supernatant from a subsequent centrifugation of sonicated bacterial cell culture, was tested in 200 μl total reaction volume by a Luminometer (Perkin Elmer, model Victor II). Each assay contained 40 mM Tris-Acetate, 1 mM MgSO4, 0.1 mM EDTA (ethylenediaminetetraacetic acid), 33 mM DTT (dithiothreitol), 500 μM D-Luciferin, 10% Ethanol and 500 μM ATP at pH 7.8. Some screening assays also contained 68.8 mM chloroform (0.8% vol.).
Different mutant luciferases were compared quantitatively by determining the percentage (%) inhibition of luciferase activity in the presence of chloroform relative to a control without chloroform. The specific activities of chloroform-tolerant mutants were generally lower as compared to wild type. […] The nucleotide sequence of CNBLuc03-02 is SEQ ID No: 1. The polypeptide sequence of the product of SEQ ID No: 1 is SEQ ID No: 2.

inhibition of luciferase activity in the presence of chloroform relative to a control without chloroform ([8]; screening, 68.8 mM chloroform (0.8% vol.), 10% ethanol, 33 mM DTT) | inhibition of luciferase activity by HPV solvents other than toluene ([2]; 0.5% of CH2Cl2, hexane, xylene or heptane, 10 μl cell lysate) [%] | Molecule | inhibition of luciferase activity by 0.8% CHCl3 [1] | original activity maintained [1] | inhibition of luciferase activity by toluene ([2]; 10 μl cell lysate) | inhibition compared to controls, chloroform ([3]; chloroform 172 mM, exposure less than 5 minutes) | inhibition compared to controls, methylene chloride ([3]; methylene chloride 318 mM) | inhibition compared to controls, toluene ([3]; toluene 2.7 mM) | effect of Triton X-100 on luciferase activity [4] | effect of SDS on luciferase activity [5] | activity at elevated pH [6] | specific activity (highest light output) [7] | specific activity compared to wild type ([8]; screening assay) | inhibition by HPV solvents compared with wild type ([2]; 0.5% of each solvent (CH2Cl2, toluene, hexane, xylene, heptane))
 |  | wild type luciferase: amino acid sequence of luciferase of the species Photinus pyralis (SEQ ID NO: 6) [reference compound] | over 80% | about 20% | approximately 80% | about 70% | about 70% | about 20% | activated by the nonionic detergent, Triton X-100, up to final concentration of 1.25%; also recorded: increased until 1.25% then it started decreasing | inhibited luciferase activity significantly | completely inhibit | 2.9±1.6×10^9 RLU/mg enzyme/sec |  | 
inhibited much less by chloroform | ≤ 15 | CNBLuc03-02: modified Photinus pyralis luciferase: serine replaced by threonine at amino acid 239 and alanine replaced by threonine at amino acid 532 (protein, listed as Photinus pyralis) MEDAKNIKKGPAPFYPLEDGTAGEQLHKAMKRYALVPGTIAFTDAHIEVNITYAEYFEMSVRLAEAMKRYGLNTNHRIVVCSENSLQFFMPVLGALFIGVAVAPANDIYNERELLNSMNISQPTVVFVSKKGLQKILNVQKKLPIIQKIIIMDSKTDYQGFQSMYTFVTSHLPPGFNEYDFVPESFDRDKTIALIMNSSGSTGLPKGVALPHRTACVRFSHARDPIFGNQIIPDTAILTVVPFHHGFGMFTTLGYLICGFAVVLMYRFEEELFLRSLQDYKIQSALLVPTLFSFFAKSTLIDKYDLSNLHEIASGGAPLSKEVGEAVAKRFHLPGIRQGYGLTETTSAILITPEGDDKPGAVGKVVPFFEAKVVDLDTGKTLGVNQRGELCVRGPMIMSGYVNNPEATNALIDKDGWLHSGDIAYWDEDEHFFIVDRLKSLIKYKGYQVAPAELESILLQHPNIFDAGVAGLPDDDAGELPAAVVVLEHGKTMTEKEIVDYVASQVTTAKKFRGGVVFVDEVPKGLTGKLDTRKIREILIKAKKGGKSKL | ~30% | 80% | approximately 40% |  |  |  |  |  |  |  | comparable activity | not inhibited as much as wild-type luciferase
